From US12522596B2, “Compounds as GLP-1R agonists” (Terns Pharmaceuticals, Inc., priority 2021, dated 2026)

Legend:
human GLP-1R receptor = target: T1, human GLP-1R receptor (Homo sapiens, UniProt P43220); test: GLP-1R low expression cell assay (cAMP TR-FRET, CHO-K1_hGLP-1Rlow_clone10); type: cell-based; details: CHO-K1_hGLP-1Rlow_clone10 cells
T1 construct: expressed in transfected cells
Description: Stable cell lines expressing high and low GLP-1R surface expression were generated in CHO-K1 cells transfected (Fugene 6) with a puromycin selectable DNA plasmid encoding human GLP-1R receptor (accession number: NM_002062.5) under control of an EF1A promoter. Transfected cells were seeded into 24-well plates (9,000 cells/well) containing complete medium and incubated in a humidified incubator at 37° C. with 5% carbon dioxide. After overnight incubation, medium was replaced with complete medium supplemented with puromycin (6 μg/mL) and refreshed every 2-3 days to select for stably transfected cells. Individual pools of selected cells were expanded prior to analysis for responsiveness to GLP-1 control peptide using a TR-FRET assay to detect cAMP (LANCE Ultra CAMP Assay, Perkin Elmer). Briefly, cells were collected in Versene solution, plated in 384-well plates (1,000 cells/well) and combined with serially diluted GLP-1R control peptide (10 nL) using an acoustic dispenser (ECHO). Plates were incubated for 30 minutes at 25° C. prior to the addition of EU-CAMP tracer (5 μL) and Ulight-anti-cAMP (5 μL) reagents to each well, followed by 15 minutes incubation at 25° C. TR-FRET signal was detected using an En Vision Multimode Plate Reader (excitation=320 nm; emission=615 and 655 nm). Dose-response curves were used to generate EC50 values as a measure of responsiveness to the GLP-1R control peptide. Selected cell lines were monitored for responsiveness over multiple passages to ensure stability. […] Briefly, GLP-1R expression was analyzed by flow cytometry using a fluorescein-labeled Exendin-4 peptide fluorescent probe (FLEX). Cells were harvested in Versene solution and washed 3-times with PBS+0.5% BSA before incubation with FLEX reagent (10 μM) for 2 hours at room temperature. After incubation, cells were washed 3-times in PBS+0.5% BSA before final resuspension in PBS prior to analysis by flow cytometry to measure FLEX mean fluorescence intensity (MFI) as a measure of GLP-1R expression on the cell surface.
For compound testing in the CHO-K1_hGLP-1Rlow_clone10 cell line, cells were seeded in 384-well plates (1,000 cells/well). Test compounds were serially diluted in DMSO (10-point, 3-fold dilution), added to wells using an ECHO dispenser (10 nL/well) and plates were centrifuged for 1 min and agitated for 2 min at room temperature prior to 30-minute incubation at 25° C. After incubation, Eu-CAMP (5 μL) and Ulight-anti-cAMP (5 μL) reagents were added to each well, followed by centrifugation for 1 minute, agitation for 2 minutes at room temperature, and final incubation of the plates at 25° C. for 15 minutes. Plates were read using an EnVision microplate reader (excitation=320 nm; emission=615 and 655 nm). Dose-response curves were generated from duplicate wells based on percent activation calculated relative to a control GLP-1 peptide agonist that was run in parallel. EC50 values were determined by fitting percent activation as a function of compound concentration using the Hill equation (XLfit).
Stable cell lines expressing high and low GLP-1R surface expression were generated in CHO-K1 cells transfected (Fugene 6) with a puromycin selectable DNA plasmid encoding human GLP-1R receptor (accession number: NM_002062.5) under control of an EF1A promoter. Transfected cells were seeded into 24-well plates (9,000 cells/well) containing complete medium and incubated in a humidified incubator at 37° C. with 5% carbon dioxide. After overnight incubation, medium was replaced with complete medium supplemented with puromycin (6 μg/mL) and refreshed every 2-3 days to select for stably transfected cells. Individual pools of selected cells were expanded prior to analysis for responsiveness to GLP-1 control peptide using a TR-FRET assay to detect cAMP (LANCE Ultra CAMP Assay, Perkin Elmer).

rat hepatocytes = test: Metabolic stability in rat hepatocytes; type: in vitro ADME
Description: (§1) Test compounds were incubated in rat and human hepatocytes and stability was assessed from the substrate […] approach. Test compounds were dissolved in dimethyl sulfoxide (DMSO) to create a 10 mM Stock, and then further diluted to create a 1000× Working Stock of 1 mM with DMSO in 96-well plates for test compounds and the positive control (midazolam). Vials containing cryopreserved hepatocytes were removed from the liquid nitrogen tank and immediately immersed in a 37° C. water bath. The vials were shaken gently until the contents had thawed and were then immediately emptied into 48 mL of pre-warmed HT Medium in a 50 mL conical tube. Cells remaining in the vial were resuspended with 1.0 mL of pre-warmed HT Medium and added to the conical tube. The tube was capped and then gently inverted several times to resuspend the hepatocytes. The cell suspension was centrifuged at 50×g at room temperature for 5 minutes and the supernatant discarded. The cell pellet was loosened by gently swirling the centrifuge tube and was re-suspended in 4 mL of warm Dulbecco's Modified Eagle medium (DMEM). Cell density was determined by a cell counter by Nexcelom, and DMEM medium was added to obtain a target density of 1×10^6 cells/mL. The assay was carried out in 96-well microtiter plates. Test Compounds were incubated at 1 μM with 1×10^6 cells/mL hepatocytes in DMEM for 0, 30, 60, 120 and 240 minutes. The incubation was carried out with gentle shaking at 37° C. under a humid atmosphere of 95% air/5% CO2. The volume of the incubation mixture was 37 μL with a final 0.1% DMSO. At each of the time points, the incubation was stopped by adding 150 μL quenching solution (100% acetonitrile, 0.1% formic acid containing bucetin as an internal standard for positive ESI mode). Subsequently, the mixtures were vortexed for 20 min and centrifuged at 4,000 RPM at 10° C. The supernatant (80 μL) was transferred to a clean 96-well plate and analyzed by LC-MS/MS. Midazolam at 1 μM with a final 0.1% DMSO was included as a positive control to verify assay performance. The percent parent remaining, intrinsic and predicted hepatic clearance and t1/2 were calculated. All samples were analyzed by LC-MS/MS using an AB Sciex API 4000 instrument, coupled to a Shimadzu LC-20AD LC Pump system. Separation was achieved using a Waters Atlantis T3 dC18 reverse phase HPLC column (20 mm×2.1 mm) at a flow rate of 0.5 mL/min. The mobile phase consisted of 0.1% formic acid in water (solvent A) and 0.1% formic acid in 100% acetonitrile (solvent B). Elution conditions are detailed below.
(§2) The ion optics of each test compound were optimized for their declustering potential (DP), […] (CE), collision-cell exit potential (CXP) and used in a selected ion monitoring experiment in the positive ion mode. The peak area ratio of each test compound to internal standard was then evaluated for stability. The extent of metabolism was calculated based on the disappearance of the test compound, compared to its initial concentration. The initial rates of clearance of the test compound were calculated using the linear regression plot of semi-log % remaining of the compound versus time. The elimination rate constant (k) of the linear regression plot was then used to determine t1/2 and the intrinsic clearance (CLint) using the following formula, where Chepatocyte (million cells/mL) is the cell density of the incubation:
(§3) The predicted hepatic clearance (CLhep) was calculated using the well stirred method with the following formula with CLint(in vivo) normalized based on liver weight: […]
(§4) The relevant physiological parameters of liver weight, blood flow, and hepatocellularity for various species are listed below: […]

[1] = Metabolic stability in rat hepatocytes; type: in vitro ADME; details: cryopreserved hepatocytes, 1 μM
Description: as §1, §2, §3, §4

[2] = Rat pharmacokinetics, oral dosing; type: in vivo, Sprague-Dawley rats; details: for Cmax / AUC(0-t) / half-life: male, Sprague-Dawley, rat plasma, 3 mg/kg PO (0.6 mg/mL); for PK properties relative to Reference Compound A: dosed orally
Description: Oral dosing: Compounds were formulated at 0.3 mg/mL or 0.6 mg/mL in a solution comprising 5% polyethylene glycol 400 and 95% (12% (w/v) sulfobutyl-β-cyclodextrin in water) (v/v). Formulated compounds were administered to male, 7-11 week old Sprague-Dawley rats by oral gavage at a dose of 3 mg/kg.
Sample collection: Blood collections of about 0.2 mL per time point were performed from jugular vein or other suitable site of each animal, into pre-chilled commercial EDTA-K2 tubes and placed on wet ice until centrifugation. Blood samples were processed for plasma by centrifugation at approximately 4° C., 3,200 g for 10 min. Plasma was collected and transferred into pre-labeled 96 well plate or polypropylene tubes, quick frozen over dry ice and kept at −60° C. or lower until LC-MS/MS analysis.
Data analysis: Plasma concentration versus time data was plotted in graph and analyzed by non-compartmental approaches using the Phoenix WinNonlin 6.3 software program. Related PK parameters were calculated according to dosing route, e.g., CL, Vdss and C0 for intravenous administration, Cmax, Tmax or % F for extravascular administration, and T1/2, AUC(0-t), AUC(0-inf), MRT(0-t), MRT(0-inf) for all routes.

[3] = Metabolic stability in human hepatocytes; type: in vitro ADME; details: cryopreserved hepatocytes; human hepatocytes, 1 μM
Description: as §1, §2, §3, §4

T1 sequence (P43220 24-463): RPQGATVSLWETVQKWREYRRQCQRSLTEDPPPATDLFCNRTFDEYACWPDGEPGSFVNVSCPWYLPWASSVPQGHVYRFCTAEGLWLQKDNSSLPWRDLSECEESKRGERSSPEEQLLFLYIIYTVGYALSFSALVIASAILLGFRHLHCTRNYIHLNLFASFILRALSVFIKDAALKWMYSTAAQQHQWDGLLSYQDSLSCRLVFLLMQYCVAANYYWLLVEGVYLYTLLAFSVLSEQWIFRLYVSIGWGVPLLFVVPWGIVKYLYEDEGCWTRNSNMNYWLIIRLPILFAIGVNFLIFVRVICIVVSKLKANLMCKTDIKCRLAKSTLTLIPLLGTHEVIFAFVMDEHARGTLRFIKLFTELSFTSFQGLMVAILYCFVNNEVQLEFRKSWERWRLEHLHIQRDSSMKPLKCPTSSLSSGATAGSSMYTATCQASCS

| EC50 (human GLP-1R receptor) [µM] | CLint relative to reference standard (rat hepatocytes) | CLint scaled at 1 μM [1] [L/h/kg] | half-life at 1 μM [1] [h] | Cmax ([2]; rat, plasma, po, 3 mg/kg) [µg/mL] | PK properties relative to Reference Compound A ([2]; rat) | CLint scaled at 1 μM [3] [L/h/kg] | half-life at 1 μM [3] [h] | Half-life relative to reference (rat hepatocytes) | AUC(0-t) ([2]; rat, plasma, po, 3 mg/kg) [µg·h/mL] | half-life ([2]; rat, plasma, po, 3 mg/kg) [h] | SMILES | AUC(0-t) [2] [µg·h/mL] | half-life [2] [h] |
| --- | --- | --- | --- | --- | --- | --- | --- | --- | --- | --- | --- | --- | --- |
| 0.0086 | significantly lower | 1.74 ± 0.0348 | 1.91 ± 0.0383 | 0.478 ± 0.186 | similarly improved PK properties | 0.934 ± 0.042 | 2.57 ± 0.117 | significantly higher | 0.617 ± 0.248 | 1.37 ± 0.18 | [2H]C([2H])(Oc1cccc(C2CCN(Cc3nc4ccc(C(=O)O)cc4n3Cc3cncs3)CC2)n1)c1ccc(C#N)cc1F [Compound 27] |  |  |
| 0.0278 | significantly lower | 2.15 ± 0.0852 | 1.55 ± 0.0615 | 0.299 ± 0.0629 | similarly improved PK properties | 0.92 ± 0.0456 | 2.61 ± 0.13 | significantly higher | 0.411 ± 0.032 | 1.54 ± 0.46 | N#Cc1cnc(COc2cccc(C3CCN(Cc4nc5ccc(C(=O)O)cc5n4Cc4cncs4)CC3)n2)c(F)c1 [Compound 29] |  |  |

| SMILES | EC50 (human GLP-1R receptor) [µM] | CLint relative to reference standard (rat hepatocytes) | CLint scaled at 1 μM [1] [L/h/kg] | half-life at 1 μM [1] [h] | Cmax ([2]; rat, plasma, po, 3 mg/kg) [µg/mL] | PK properties relative to Reference Compound A ([2]; rat) | CLint scaled at 1 μM [3] [L/h/kg] | half-life at 1 μM [3] [h] | Half-life relative to reference (rat hepatocytes) | AUC(0-t) ([2]; rat, plasma, po, 3 mg/kg) [µg·h/mL] | half-life ([2]; rat, plasma, po, 3 mg/kg) [h] | AUC(0-t) [2] [µg·h/mL] | half-life [2] [h] |
| --- | --- | --- | --- | --- | --- | --- | --- | --- | --- | --- | --- | --- | --- |
| N#Cc1ccc(COc2cccc(C34CCN(Cc5nc6ccc(C(=O)O)cc6n5Cc5cncs5)CC3C4)n2)c(F)c1 (centres unmarked) [Compound 14] | 0.0301 | significantly increased | 5.57 ± 0.198 | 0.597 ± 0.0212 | 0.581 ± 0.1 | similarly improved PK properties | 1.21 ± 0.0354 | 1.99 ± 0.0583 |  |  |  | 0.582 ± 0.045 | 3.14 ± 1.88 |
